Assay results as given in paper PMC10718076, “1,2-Disubstituted bicyclo[2.1.1]hexanes as saturated bioisosteres of ortho-substituted benzene” (Chemical Science, 2023).
Converted amounts (≈) assume the structure as drawn. Structures can show the parent of a compound that is named as a salt. Where two headings read alike, the source gives them in different places. Each block holds one compound with its values, some of them ahead of it.

Legend:
[1] = test system: Aspergillus niger (strain VURV-F 822); test: Antifungal disk diffusion method; format: cell-based; settings: for zone of inhibition at 4 µg/mL: Concentration 0.004 mg/mL, Boscalid, Bixafen marked st; for zone of inhibition at 4 µg/mL / zone of inhibition at 8 µg/mL / zone of inhibition at 16 µg/mL / zone of inhibition at 30 µg/mL / zone of inhibition at 60 µg/mL: 0 = absence of antifungal activity; for zone of inhibition at 4 µg/mL / zone of inhibition at 60 µg/mL: Fluxapyroxad; for zone of inhibition at 4 µg/mL / zone of inhibition at 8 µg/mL / zone of inhibition at 16 µg/mL / zone of inhibition at 30 µg/mL / zone of inhibition at 60 µg/mL / zone of inhibition at 120 µg/mL / zone of inhibition at 250 µg/mL / zone of inhibition at 500 µg/mL / zone of inhibition at 1000 µg/mL / zone of inhibition at 2000 µg/mL: read-out: Diameter of inhibition zone; for zone of inhibition at 8 µg/mL: Concentration 0.008 mg/mL; for zone of inhibition at 16 µg/mL: Concentration 0.016 mg/mL; for zone of inhibition at 30 µg/mL: Concentration 0.03 mg/mL; for zone of inhibition at 30 µg/mL / zone of inhibition at 60 µg/mL: (±)-29 marked st; for zone of inhibition at 60 µg/mL: Concentration 0.06 mg/mL, Bixafen; for zone of inhibition at 120 µg/mL: Concentration 0.12 mg/mL, (±)-28 marked st (static growth); for zone of inhibition at 250 µg/mL: Concentration 0.25 mg/mL, (±)-28 marked st (static growth, secondary growth of mycelium); for zone of inhibition at 500 µg/mL: Concentration 0.5 mg/mL; for zone of inhibition at 500 µg/mL / zone of inhibition at 1000 µg/mL / zone of inhibition at 2000 µg/mL: 10 μl per disk; for zone of inhibition at 1000 µg/mL: Concentration 1 mg/mL; for zone of inhibition at 2000 µg/mL: Concentration 2 mg/mL; for MIC: disk diffusion, small zones of inhibition with secondary mycelial growth, read-out: minimum inhibitory concentration
Description: Antifungal activity of the synthetic compounds using disk diffusion methods The compounds were tested for plant pathogens Aspergillus niger (strain VURV-F 822), which was received from Culture collection of microorganisms of Crop Research Institute (Prague, Czech […]
The synthetic compounds' antifungal activity was evaluated using a disk diffusion assay for testing filamentous fungi (CLSI M51-A) and broth microdilution antifungal susceptibility testing (EUCAST E.DEF 7.3.1; CLSI M38-A2)
[CLSI M51-A. Method for Antifungal Disk Diffusion Susceptibility Testing of Nondermatophyte Filamentous Fungi; Approved Guideline.CLSI document M51-A. Wayne, PA:
Clinical and Laboratory Standards Institute; 2010. This method is standardized for Altenaria, Aspergillus, Bipolaris, Fusarium, order Mucorales, etc.]
[CLSI M38-A2. 2008. Reference method for broth dilution antifungal susceptibility testing of filamentous fungi, 2nd ed Approved standard M38 -A2 Clinical and Laboratory Standards Institute, […]
Antifungal disk diffusion method
The solutions of fungicides and their analogues were diluted in dimethyl sulfoxide (DMSO) to […]
mg/mL for each test component. Sterile paper disks (ASPECT, Ukraine) were soaked with 10 μl of a solution of the appropriate fungicide from the highest concentration to the lowest.
The fungal strains were cultured on Petri dishes with Saburo dextrose agar (Condalab, Spain) and incubated at 25 °C for 5 days. Sterile Dulbecco's phosphate -buffered saline (DPBS) with 0,1 % Tween 20 was used to cover colonies of fungus for obtained conidia l suspension. Suspension of conidia was adjusted to inoculums 2×10^5 conidia/mL by sterile DPBS.
For antifungal disk diffusion test we used square Petri dishes (FALCON A Corning Brand, USA). The conidial suspension (0.5 mL) was added to Petri dishes with Saburo dextrose agar. The suspension was evenly distributed over the surface of the nutrient medium with a glass spatula.
After the surface of the inoculated medium was dry, the disks with different concentrations of testing compounds were added to the Petri dishes. Each compound was tested in triplicate at different concentrations. Growth control was a disk with 10 μl of DMSO, which was used for test […]
Petri dishes incubated at 25 °C for 72 h. The test compounds at known concentrati on into contact with an inoculated medium then exert a growth-inhibiting effect then a clear zone (the zone of […]
inhibition) appears around the test product. The diameter of a clear zone around the well is […]
If the fungal strain is susceptible to the antifungal agent, then a zone of inhibition appears on the agar plate. If it is resistant to the test compound, then no zone is evident. The size of the zone of inhibition is usually related to the level of antifungal activity present in the compound – a larger […]
The growth rate of all strains for each concentration of test compounds was determined visually and compared with the growth of control.
Broth microdilution antifungal susceptibility testing
A 96-well CELLSTAR plate (sterile, flat-bottomed, polystyrene, transparent) was used to determine MIC by broth microdilution method. Also, dabble straight RPMI-1640 medium with 2% glucose (2x RPMI 2%G) was used for this method. Spore suspension for plate inoculation was prepared according to the method described above for the disc diffusion method.
The each well in the plate contained 49 μl of medium (2x RPMI 2%G), 50 μl of inoculum (prepared in DPBS) and 1 μl of the stock solution of the test substance. Positive control wells contained 50 μl medium and 50 μl inoculum, and sterile control wells contained 50 μl medium and […]
To determine the MIC by the microdilution method, a series of stock solutions of fungicides and their analogues in DMSO with the following concentrations were prepared: 3.2 mg/mL, 1.6 mg/mL, […]
1 μl of the stock solutions of the test substances were added to each well to obtain the following […]
Immediately after adding all the components to the plates, the optical density was measured at […]

[2] = Kinetic solubility in phosphate-buffered saline, pH 7.4; format: physicochemical; settings: for solubility kinetic at 2 h / solubility at 2 h: 25 °C, pH 7.4, aqueous buffer, kinetic from dmso stock; for solubility at 2 h: PBS solubility
Description: Analysis of Aqueous Solubility […]
compound (Ondansetron) were assessed for kinetic solubility in phosphate -buffered saline, pH 7.4.
Phosphate buffered saline, pH 7.4 (Sigma -Aldrich, USA; Cat #P3813) […]
MultiScreen HTS 96 Well Filter Plates (Millipore, Ireland; Cat # MSSLBPC10) […]
Matrix Multichannel Electronic Pipette 2-125 μL, 5-250 μL, 15-1250 μL (Thermo Scientific, USA; […]
Vacuum pump (Millipore, USA; Model # XX5500000)
The measurements were performed using SpectraMax Plus reader in UV -Vis mode. Acquisition and […]
The measurements were performed using SpectraMax Paradigm reader in UV-Vis mode.
Acquisition and analysis of the data were performed using SoftMax Pro v.5.4 (Molecular Devices) […]
Kinetic solubility assay was performed according to the Enamine’s aqueous solubility SOP. Briefly, using a 20 mM stock solution of the compound in 100% DMSO dilutions were prepared to a theoretical concentration of 400 μM in duplicates in phosphate-buffered saline pH 7.4 […]
compound dilutions in PBS were further allowed to equilibrate at 25 °C on a thermostatic shaker for two hours and then filtered through HTS filter plates using a vacuum manifold. The filtrates of test compounds were diluted 2-fold with acetonitrile with 2% DMSO before measuring.
In parallel, compound dilutions in 50% acetonitrile/PBS were prepared to theoretical concentrations […]
calibration curves. Ondansetron was used as reference compound to control proper assay performance. 200 μl of each sample was transferred to 96-well plate and measured in 230-550 nm range with 5 nm step. The effective range of this assay is approximately 2-400 μM and the […]
The concentrations of compounds in PBS filtrate are calculated using a dedicated Microsoft Excel calculation script. Proper absorbance wavelengths for calculations are selected for each compound manually based on absorbance maximums (absolute absorbance unit values for the minimum and maximum concentration points within the 0 – 3 OD range). Each final dataset is visually evaluated by the operator, and goodness of fit (R2) is calculated for each calibration curve. […]
samples were diluted 2-fold with acetonitrile containing internal standard and were analyzed using the HPLC system coupled with a tandem mass spectrometer. The effective range of this assay is […]

in vitro = settings: both, human
[3] = Metabolic stability in human liver microsomes; settings: both; for remaining at 40 min, 2 µM: Mean of 2, 40 min
physchem = settings: pH 7.4, LogD, pH 7.4
[4] = Table S5, injection 1, octanol/PBS pH 7.4
[5] = Table S5, injection 2, octanol/PBS pH 7.4
[6] = Table S5, injection 3, octanol/PBS pH 7.4

SMILES: Cc1nc2c([nH]1)CCN(C(=O)c1ccc(NC(=O)C3CC4CC3(c3ccccc3)C4)cc1)c1ccccc1-2 (stereo not drawn) [Compound 26]
- solubility kinetic at 2 h [2]: 14 µM (≈ 7.04 µg/mL)
- solubility at 2 h ([2]; pH 7.4, Incubation 1): 15 µM (≈ 7.54 µg/mL)
- solubility at 2 h ([2]; pH 7.4, Incubation 2): 14 µM (≈ 7.04 µg/mL)
- solubility at 2 h ([2]; pH 7.4, Mean): 14 µM (≈ 7.04 µg/mL)
- microsomal CLint at 2 μM ([3]; human liver microsomes (pooled), pH 7.4): 12 µL/min/mg
- remaining at 40 min, 2 µM ([3]; liver microsomes (pooled), pH 7.4, % Remaining without cofactor, no NADPH cofactor, Table S6, 1st batch): 109%
- remaining at […], 2 µM ([3]; liver microsomes (pooled), pH 7.4, % Remaining, Mean of 2, 7 min, Table S6, 1st batch): 81%
- remaining at […], 2 µM ([3]; liver microsomes (pooled), pH 7.4, % Remaining, Mean of 2, 15 min, Table S6, 1st batch): 81%
- remaining at 25 min, 2 µM ([3]; liver microsomes (pooled), pH 7.4, % Remaining, Mean of 2, 25 min, Table S6, 1st batch): 83%
- remaining at 40 min, 2 µM ([3]; liver microsomes (pooled), pH 7.4, % Remaining, Table S6, 1st batch): 76%
- k el at 2 µM ([3]; liver microsomes (pooled), pH 7.4, kel, Table S6, 1st batch): 8.33e-05 s⁻¹
- half-life at 2 µM ([3]; liver microsomes (pooled), pH 7.4, t1/2, Table S6, 1st batch): 2.25 h
- logD at 1 h (physchem): 3.98
- D [4]: 9.55E+03
- D [5]: 1.25E+04
- D [6]: 1.36E+04

SMILES: O=C(Nc1ccccc1-c1ccc(Cl)cc1)c1cccnc1Cl [Boscalid, boscalid]
- zone of inhibition at 4 µg/mL [1]: 7.5 ± 1 mm
- zone of inhibition at 8 µg/mL [1]: 8.5 ± 1 mm
- zone of inhibition at 16 µg/mL [1]: 10.5 ± 1.5 mm
- zone of inhibition at 30 µg/mL [1]: 13.5 ± 2 mm
- zone of inhibition at 60 µg/mL [1]: 17.8 ± 2.25 mm
- zone of inhibition at 120 µg/mL [1]: 21.2 ± 2.25 mm
- zone of inhibition at 250 µg/mL [1]: 20.2 ± 1 mm
- zone of inhibition at 500 µg/mL [1]: 26 ± 2.5 mm
- zone of inhibition at 1000 µg/mL [1]: 29 ± 1.5 mm
- zone of inhibition at 2000 µg/mL [1]: 34.2 ± 0.75 mm
- MIC [1]: 4 µg/mL (≈ 11.7 µM)
- solubility kinetic at 2 h [2]: 11 µM (≈ 3.78 µg/mL)
- D [4]: 3.62E+03
- D [5]: 2.86E+03
- D [6]: 4.07E+03

SMILES: Cc1nccn1CC1CCc2c(c3ccccc3n2C)C1=O (stereo not drawn) [Ondansetron, reference compound]
- solubility at 2 h ([2]; pH 7.4, Incubation 1): 126 µM (≈ 37 µg/mL)
- solubility at 2 h ([2]; pH 7.4, Incubation 2): 126 µM (≈ 37 µg/mL)
- solubility at 2 h ([2]; pH 7.4, Mean): 126 µM (≈ 37 µg/mL)
- PBS solubility, pH 7.4, Incubation 1 ([2]; Table S1, 1st batch): 121 µM
- PBS solubility, pH 7.4, Incubation 2 ([2]; Table S1, 1st batch): 119 µM

Further lines, with some results ahead:

- MIC [1]: 4 µg/mL (≈ 10.5 µM)
- solubility kinetic at 2 h [2]: 25 µM (≈ 9.53 µg/mL)
- D [4]: 3.37E+03
- D [5]: 2.99E+03
- D [6]: 3.24E+03
SMILES: Cn1cc(C(=O)Nc2ccccc2-c2cc(F)c(F)c(F)c2)c(C(F)F)n1 [Fluxapyroxad, fluxapyroxad]
- zone of inhibition at 4 µg/mL [1]: 8 ± 2 mm
- zone of inhibition at 8 µg/mL [1]: 11.8 ± 1.25 mm
- zone of inhibition at 16 µg/mL [1]: 14.5 ± 0.5 mm
- zone of inhibition at 30 µg/mL [1]: 18.2 ± 0.4 mm
- zone of inhibition at 60 µg/mL [1]: 22.2 ± 1.25 mm
- zone of inhibition at 120 µg/mL [1]: 25.2 ± 1.5 mm
- zone of inhibition at 250 µg/mL [1]: 30 ± 0.5 mm
- zone of inhibition at 500 µg/mL [1]: 34.5 ± 0.75 mm
- zone of inhibition at 1000 µg/mL [1]: 39.2 ± 2.25 mm
- zone of inhibition at 2000 µg/mL [1]: 40.8 ± 1.6 mm

- remaining at 40 min, 2 µM (in vitro; microsomes, pH 7.4, % Remaining, Mean of 2): 68%
- half-life at 2 µM (in vitro; microsomes, pH 7.4, t1/2): 1.18 h
- half-life at 2 µM (in vitro; s9, pH 7.4, t1/2): ~5.93 h
- remaining at 40 min, 2 µM ([3]; liver microsomes (pooled), pH 7.4, % Remaining, Table S7, 2st batch): 58%
SMILES: CC(C)NCC(O)COc1cccc2ccccc12 (racemic) [Propranolol, (+,-) Propranolol hydrochloride]

- solubility kinetic at 2 h [2]: 3 µM (≈ 2.08 µg/mL)
- D [4]: 5.98E+08
- D [5]: 3.42E+05
- D [6]: 6.79E+04
SMILES: O=C(NC1CCN(CCCCC2(C(=O)NCC(F)(F)F)c3ccccc3-c3ccccc32)CC1)c1ccccc1-c1ccc(C(F)(F)F)cc1 [Lomitapide, lomitapide]

- logD at 1 h (physchem): 2.82
SMILES: COC(=O)Nc1nc2ccc(C(=O)c3ccccc3)cc2[nH]1 [Mebendazole]
